The values that follow come from patent US20250295652A1, “Inhibitors of Molluscum Contagiosum Infection and Methods Using the Same” (priority 2021, published 2025).

Like-named read-outs stand apart in the source and are kept apart here. Where only a bound is given, the exact number is not on record here.

For one assay, the system named is VV. Kind of assay: microbe, parasite or virus in culture. The format is cell-based, vaccinia virus.
The subject of another assay is mD4-VV surrogate virus. As to the kind of experiment: microbe, parasite or virus in culture. Format: cell-based, mD4/vaccinia hybrid virus. The settings on record: Hybrid virus, BSC-1, read-out: mD4 EC50.
The target of assay [1] is E9/A20/D4 proteins (molluscum mD4) (Molluscum contagiosum virus, UniProt Q98260). As to the kind of experiment: biochemical.
[2] abbreviates: Orthopoxvirus vaccinia, BSC-1, read-out: VV EC50.

Chain of E9/A20/D4 proteins (molluscum mD4) (Q98260 1-226): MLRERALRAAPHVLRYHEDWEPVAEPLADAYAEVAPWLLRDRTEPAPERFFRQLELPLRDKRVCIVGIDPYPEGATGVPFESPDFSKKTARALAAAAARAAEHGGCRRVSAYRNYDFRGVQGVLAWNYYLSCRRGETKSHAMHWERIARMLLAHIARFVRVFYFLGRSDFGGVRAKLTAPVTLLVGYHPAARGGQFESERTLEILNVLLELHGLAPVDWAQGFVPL

Turning to `CCOC(=O)c1c(NC(=O)C(CC)c2ccccc2)sc(C)c1CC` (stereo not shown) [Compound 2, ethyl 4-ethyl-5-methyl-2-(2-phenylbutanamido)thiophene-3-carboxylate], the EC50 in the assay on VV (setting [2]) was found to be 36.6 µM. Same read-out and setting: the figure for `CCOC(=O)c1c(NC(=O)C2CCCCC2)sc(C(N)=O)c1C` [Compound 4, ethyl 5-carbamoyl-2-(cyclohexanecarboxamido)-4-methylthiophene-3-carboxylate] is 48.9 µM. On to `CCOC(=O)c1c(NC(=O)C(CC)c2ccccc2)sc(C(=O)N(C)C)c1C` (stereo not shown) [Compound 5, ethyl 5-(dimethylcarbamoyl)-4-methyl-2-(2-phenylbutanamido)thiophene-3-carboxylate], for which the EC50 in the assay on VV (setting [2]) worked out at 29.7 µM. `CCOC(=O)c1c(NC(=O)C(CC)c2ccccc2)sc(C(N)=O)c1C` (stereo not shown) [Compound 8, ethyl 5-carbamoyl-4-methyl-2-(2-phenylbutanamido)thiophene-3-carboxylate]: the EC50 in the assay with VV (setting [2]) worked out at 10.3 µM. Take `CCC(C(=O)Nc1sc(C(N)=O)c(C)c1C#N)c1ccccc1` (stereo not shown) [Compound 9, 4-cyano-3-methyl-5-(2-phenylbutanamido)thiophene-2-carboxamide]: the EC50 in the assay with VV (setting [2]) worked out at 11.3 µM. The same measure, in the same setting: the figure for `CC[C@H](C(=O)Nc1sc(C(N)=O)c(C)c1C(=O)OC)c1ccccc1` [Compound 15, methyl (S)-5-carbamoyl-4-methyl-2-(2-phenylbutanamido)thiophene-3-carboxylate] is 17.9 µM; for `CC[C@@H](C(=O)Nc1sc(C(N)=O)c(C)c1C(=O)OC)c1ccccc1` [Compound 16, methyl (R)-5-carbamoyl-4-methyl-2-(2-phenylbutanamido)thiophene-3-carboxylate] it is 16.4 µM. For the compound `CC[C@@H](C(=O)Nc1sc(C(N)=O)c(C)c1C(=O)OC)c1ccccc1` [Compound 17, methyl (R)-5-carbamoyl-4-methyl-2-(2-phenylbutanamido)thiophene-3-carboxylate], the EC50 in the assay on VV (read-out: VV EC50) came out at 26.8 µM. Take `CCOC(=O)c1sc(NC(=O)C(CC)c2ccccc2)c(C(N)=O)c1C` (stereo not shown) [Compound 19, ethyl 4-carbamoyl-3-methyl-5-(2-phenylbutanamido)thiophene-2-carboxylate]: in the assay on VV (setting [2]), the EC50 was 31.3 µM. Take `CCC(C(=O)Nc1cc(C)c(C(=O)OC)s1)c1ccccc1` (stereo not shown) [Compound 22, 3-Methyl-5-(2-phenyl-butyrylamino)-thiophene-2-carboxylic acid methyl ester]: the EC50 in the assay on VV (setting [2]) was found to be 26.8 µM. Consider `CCC(C(=O)Nc1sc(C(=O)N(CC)CC)c(C)c1C(=O)OC)c1ccccc1` (stereo not shown) [Compound 24, methyl 5-(diethylcarbamoyl)-4-methyl-2-(2-phenylbutanamido)thiophene-3-carboxylate], for which, in the assay with VV (setting [2]), the EC50 turned out to be 16.4 µM. `CCC(C(=O)Nc1sc(C)c(C)c1C(=O)OC)c1ccccc1` (stereo not shown) [Compound 26, methyl 4,5-dimethyl-2-(2-phenylbutanamido)thiophene-3-carboxylate]: in the assay with VV (setting [2]), the EC50 was determined as 45.3 µM. Regarding `CCC(C(=O)Nc1sccc1C(N)=O)c1ccccc1` (stereo not shown) [Compound 31, 2-(2-phenylbutanamido)thiophene-3-carboxamide], the EC50 in the assay with VV (setting [2]) was determined as 49.7 µM.

Take `CCC(C(=O)Nc1scc(C)c1C(=O)OC)c1ccccc1` (stereo not shown) [Compound 32, 4-Methyl-2-(2-phenyl-butyrylamino)-thiophene-3-carboxylic acid methyl ester]: in the assay on VV (setting [2]), the concentration giving a half-maximal response (EC50) amounted to 32.9 µM. For the compound `COC(=O)c1c(NC(=O)C(Cc2ccccc2)N2C(=O)c3ccccc3C2=O)sc(C(N)=O)c1C` (stereo not shown) [Compound 33, 5-Carbamoyl-2-[2-(1,3-dioxo-1,3-dihydro-isoindol-2-yl)-3-phenyl-propionylamino]-4-methyl-thiophene-3-carboxylic acid methyl ester], the EC50 in the assay on VV (setting [2]) amounted to 43.6 µM.

Turning to `CCC(C(=O)Nc1cc(C)cs1)c1ccccc1` (stereo not shown) [Compound 34, N-(4-methyl-thiophen-2-yl)-2-phenyl-butyramide], the EC50 in the assay with VV (setting [2]) amounted to 46.7 µM. Turning to `COC(=O)c1c(NC(=O)C2CCc3ccccc32)sc(C(N)=O)c1C` (stereo not shown) [Compound 35, 5-Carbamoyl-2-[(indane-1-carbonyl)-amino]-4-methyl-thiophene-3-carboxylic acid methyl ester], the EC50 with VV (setting [2]) was found to be 20.4 µM. In the case of `COC(=O)c1c(NC(=O)C2(c3ccccc3)CC2)sc(C(N)=O)c1C` [Compound 36, 5-Carbamoyl-4-methyl-2-[(1-phenyl-cyclopropanecarbonyl)-amino]-thiophene-3-carboxylic acid methyl ester], the EC50 in the assay with VV (setting [2]) was 14.3 µM. On to `CCC(C(=O)N(C(=O)C(CC)c1ccccc1)c1sc(C)c(C)c1C#N)c1ccccc1` (stereo not shown) [Compound 39, N-(3-Cyano-4,5-dimethyl-thiophen-2-yl)-2-phenyl-N-(2-phenyl-butyryl)-butyramide], for which the EC50 with VV (setting [2]) was 11 µM. Take `Cc1c(C(N)=O)sc(NC(=O)C2CCCC2)c1C#N` [Compound 40, 4-cyano-5-(cyclopentanecarboxamido)-3-methylthiophene-2-carboxamide]: the EC50 with VV (setting [2]) stood at 47.4 µM. For the compound `Cc1c(C(N)=O)sc(N(C(=O)C2CCCc3ccccc32)C(=O)C2CCCc3ccccc32)c1C#N` (stereo not shown) [Compound 47, 5-[Bis-(1,2,3,4-tetrahydro-naphthalene-1-carbonyl)-amino]-4-cyano-3-methyl-thiophene-2-carboxylic acid amide], the EC50 with VV (setting [2]) stood at 20 µM. On the same count and under the same terms, the same measure for `Cc1c(C(N)=O)sc(NC(=O)C2CCc3cc(Cl)ccc32)c1C#N` (stereo not shown) [Compound 50, 5-[(5-Chloro-indane-1-carbonyl)-amino]-4-cyano-3-methyl-thiophene-2-carboxylic acid amide]: 33 µM; for `COc1ccc(CN(Cc2ccc(OC)cc2)C(Cc2ccccc2)C(=O)Nc2sc(C(N)=O)c(C)c2C#N)cc1` (stereo not shown) [Compound 57, 5-(2-{Bis[(4-methoxyphenyl)methyl]amino}-3-phenylpropanamido)-4-cyano-3-methylthiophene-2-carboxamide]: 20.8 µM.

For the compound `CCC(C(=O)Nc1sc(C(=O)N(CC)CC)c(C)c1C#N)c1ccccc1` (stereo not shown) [Compound 66, 4-cyano-N,N-diethyl-3-methyl-5-(2-phenylbutanamido)thiophene-2-carboxamide], in the assay on VV (setting [2]), the EC50 amounted to 42.2 µM. In the case of `CCC(C(=O)Nc1snc(C)c1C#N)c1ccccc1` (stereo not shown) [Compound 68, N-(4-Cyano-3-methyl-isothiazol-5-yl)-2-phenyl-butyramide], in the assay with VV (setting [2]), the EC50 worked out at 8.6 µM. Regarding `CCOC(=O)c1sc(NC(=O)C(CC)c2ccccc2)cc1C` (stereo not shown) [Compound 72, ethyl 3-methyl-5-(2-phenylbutanamido)thiophene-2-carboxylate], the EC50 in the assay on VV (setting [2]) is 19.1 µM.

On to `CCC(C(=O)Nc1sc(C(N)=O)c(C)c1C#N)c1ccc([N+](=O)[O-])cc1` (stereo not shown) [Compound 75, 5-(2-(4-Nitrophenyl)butanamido)-4-cyano-3-methylthiophene-2-carboxamide], for which the EC50 in the assay with VV (setting [2]) came to 35 µM. For `CCC(C(=O)Nc1nc(-c2ccccc2)cs1)c1ccccc1` (stereo not shown) [Compound 76, 2-phenyl-N-(4-phenylthiazol-2-yl)butanamide], the EC50 with VV (setting [2]) was determined as 18.4 µM. `CCC(C(=O)Nc1ncc(C(=O)OC)s1)c1ccccc1` (stereo not shown) [Compound 77, methyl 2-(2-phenylbutanamido)thiazole-5-carboxylate]: the EC50 in the assay on VV (setting [2]) came out at 21.4 µM. Consider `CCC(C(=O)Nc1cc(C)ns1)c1ccccc1` (stereo not shown) [Compound 78, N-(3-methylisothiazol-5-yl)-2-phenylbutanamide], for which the EC50 with VV (setting [2]) turned out to be 41.7 µM. Turning to `CCC(C(=O)Nc1sc(C(=O)OC)cc1C#N)c1ccccc1` (stereo not shown) [Compound 82, Methyl 5-(2-phenylbutanamido)-4-cyanothiophene-2-carboxylate], the EC50 in the assay with VV (setting [2]) amounted to 11 µM.

On to `O=C(NCc1ccc(Cl)cc1)c1nnsc1NC(=O)N1CCN(c2ccccc2)CC1` [Compound 84, N-(4-chlorobenzyl)-5-(4-phenylpiperazine-1-carboxamido)-1,2,3-thiadiazole-4-carboxamide], for which the EC50 was determined as 9.4 µM in the assay with VV (setting [2]) and 10 µM with mD4-VV surrogate virus. Regarding `COc1ccc(N2CCN(C(=O)Nc3snnc3C(=O)NCc3ccc(Cl)cc3)CC2)cc1` [Compound 86, N-(4-chlorobenzyl)-5-(4-(4-methoxyphenyl)piperazine-1-carboxamido)-1,2,3-thiadiazole-4-carboxamide], in the assay on VV (setting [2]), the EC50 turned out to be 32.6 µM. Take `Cc1nsc(NC(=O)C2CCc3ccccc32)c1C#N` (stereo not shown) [Compound 87, Indan-1-carboxylic acid (4-cyano-3-methyl-isothiazol-5-yl)-amide]: the EC50 with VV (setting [2]) was 17 µM. Regarding `CCC(C(=O)Nc1snc(C)c1C(=O)OC)c1ccccc1` (stereo not shown) [Compound 89, 3-Methyl-5-(2-phenyl-butyrylamino)-isothiazole-4-carboxylic acid methyl ester], in the assay with VV (setting [2]), the EC50 amounted to 29.3 µM. Turning to `CCC(C(=O)Nc1sncc1C#N)c1ccccc1` (stereo not shown) [Compound 90, N-(4-Cyano-isothiazol-5-yl)-2-phenyl-butyramide], the EC50 in the assay on VV (setting [2]) is 21.8 µM. `CCC(C(=O)Nc1snnc1-c1ccc(C(F)(F)F)cc1)c1ccccc1` (stereo not shown) [Compound 109, 2-Phenyl-N-[4-(4-trifluoromethyl-phenyl)-[1,2,3]thiadiazol-5-yl]-butyramide]: the EC50 in the assay with mD4-VV surrogate virus came to 0.8 µM. In assay [1], this compound came in with an IC50 of 68.6 µM. On the same counts, the results for `CCC(C(=O)Nc1sccc1C(=O)NCc1ccc(Cl)cc1)c1ccccc1` (stereo not shown) [Compound 110, 2-(2-Phenylbutanamido)-N-(4-chlorobenzyl)thiophene-3-carboxamide] are 8 µM and > 100 µM. For the compound `CCC(C(=O)Nc1sc(C(=O)NCCCNC(=O)OC(C)(C)C)c(C)c1C(=O)OC)c1ccc(F)cc1` (stereo not shown) [Compound 202, Methyl 5-((3-((tert-butoxycarbonyl)amino)propyl)carbamoyl)-2-(2-(4-fluorophenyl)butanamido)-4-methylthiophene-3-carboxylate], the EC50 in the assay with mD4-VV surrogate virus is > 50 µM. The same measure, in the same setting: the same measure for `CCC(C(=O)Nc1sc(C(=O)NCCCN)c(C)c1C(=O)OC)c1ccc(F)cc1` (stereo not shown) [Compound 203, Methyl 5-(3-aminopropylcarbamoyl)-2-(2-(4-fluorophenyl)butanamido)-4-methylthiophene-3-carboxylate]: 20 µM.

Broadly, the EC50 is the concentration giving half of the maximal effect. As a reminder, the IC50 is the midpoint of a concentration-inhibition curve.
